Experimental findings from US20260272878A1, “ADAR1 INHIBITORS AND USES THEREOF” (THE WISTAR INSTITUTE OF ANATOMY AND BIOLOGY, priority 2023, published 2026) are described below.

One data set deals with T1, ADAR2 (Homo sapiens, UniProt P78563).
T1 sequence (P78563 1-741): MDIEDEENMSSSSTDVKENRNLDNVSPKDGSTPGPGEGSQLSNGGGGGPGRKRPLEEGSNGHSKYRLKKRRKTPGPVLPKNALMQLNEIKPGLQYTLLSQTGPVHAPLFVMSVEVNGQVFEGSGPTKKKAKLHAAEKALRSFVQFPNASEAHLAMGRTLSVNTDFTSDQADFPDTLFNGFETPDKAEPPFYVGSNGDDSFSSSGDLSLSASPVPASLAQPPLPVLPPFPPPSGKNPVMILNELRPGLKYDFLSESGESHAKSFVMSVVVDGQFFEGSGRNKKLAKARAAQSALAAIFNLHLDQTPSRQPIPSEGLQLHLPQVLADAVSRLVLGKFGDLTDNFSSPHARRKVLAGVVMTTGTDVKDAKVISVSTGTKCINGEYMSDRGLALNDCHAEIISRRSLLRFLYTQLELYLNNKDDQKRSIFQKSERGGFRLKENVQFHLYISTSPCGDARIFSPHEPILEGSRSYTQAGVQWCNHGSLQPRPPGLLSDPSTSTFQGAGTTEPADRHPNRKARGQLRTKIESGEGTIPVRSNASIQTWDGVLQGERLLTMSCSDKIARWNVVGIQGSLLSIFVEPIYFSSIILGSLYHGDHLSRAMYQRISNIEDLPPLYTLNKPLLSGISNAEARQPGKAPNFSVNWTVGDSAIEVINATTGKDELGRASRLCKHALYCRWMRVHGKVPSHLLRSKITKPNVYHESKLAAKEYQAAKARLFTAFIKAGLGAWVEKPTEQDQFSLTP
Nature of the data set: Binding to ADAR2 (not shown).

Another data set has as its target HuR (Homo sapiens, UniProt Q15717). The data set can be described thus: SPR binding to negative control protein HuR. An excerpt: (§1) FIGS. 5A-5D show Biacore SPR analysis for binding of ADAR1i to ADAR1p110. (FIG. 5A) SPR analysis for binding kinetics of 8 compounds to ADAR1p110-WT. ADAR1 inhibition positive (ADAR1i-13, ADAR1i-120, ADAR1i-124) and negative compounds. (FIG. 5B, FIG. 5C) […] of SPR analysis for binding of ADAR1i-13 and ADAR1i-124 to ADAR1p110-WT and ADAR1p110-E912A as well as negative control proteins, GAPDH and HuR, are shown. […] ADAR1-E912, equivalent of ADAR2 E396, is located in the catalytic center.

The target in the next data set is GAPDH (Homo sapiens, UniProt P04406). The data set can be described thus: SPR binding to negative control protein GAPDH.
GAPDH, sequence (P04406 whole entry, species assumed): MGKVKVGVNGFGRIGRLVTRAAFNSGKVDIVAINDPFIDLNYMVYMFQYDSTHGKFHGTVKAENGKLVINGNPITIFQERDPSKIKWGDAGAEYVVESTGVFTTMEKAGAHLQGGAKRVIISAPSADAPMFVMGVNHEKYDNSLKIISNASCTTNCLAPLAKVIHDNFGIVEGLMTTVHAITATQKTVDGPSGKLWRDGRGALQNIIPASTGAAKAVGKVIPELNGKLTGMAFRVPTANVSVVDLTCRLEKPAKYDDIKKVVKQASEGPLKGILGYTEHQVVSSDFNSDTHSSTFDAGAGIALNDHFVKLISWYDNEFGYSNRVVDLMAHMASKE
From the text: as §1
On the technique in general: SPR reads the build-up and loss of mass on a sensor chip optically.

Data set [1] deals with mouse melanoma and ovarian cancer cells. The data set can be described thus: Killing of mouse melanoma and ovarian cancer cells (FIG. 10C). Format: cell-based. An excerpt: (§2) FIGS. 10A-10C show ADAR1i-124 kills cancer cells via different cell death mechanism. (FIG. 10A) Differential expression of ADAR1p150 and ADAR1p110 in cancer cells. […] Annexin V and pMLKL were used as apoptosis and necroptosis markers, respectively. At least 200 cells were examined. Data: mean±SD (n=3). Significant differences were identified by two tailed Student's t-tests: *P<0.05, n.s., not significant. […] We plan to evaluate ADAR1 inhibitors in vivo in mouse tumor model systems by using these mouse cancer cell lines.

For the next data set, the system named is HGS2 cells. Nature of the data set: qRT-PCR of ISG expression (IFN signaling), HGS2. The data set is classed as cell-based, mouse. The settings on record: HGS2, 10 μM, 12 hrs. On the procedure:
(§3) FIGS. 9A-9C show dose-dependent killing of cancer cells and activation of IFN signaling. […] YUMM1.7 (FIG. 9B) and HGS2 cells (FIG. 9C) were treated with ADAR1i-124 at 10 μM (12 hrs). RNA samples were analyzed by qRT-PCR to monitor ISG expression levels. Data: mean±SD (n=3). Significant differences were identified by two-tailed Student's t-tests: ***P<0.001.

Data set [2] has as its system WM3000 PDX melanoma cell line. Nature of the data set: Dose-dependent killing, WM3000. Format: cell-based. The settings on record: human PDX melanoma cell line. On the procedure:
as §3
Treatments and analysis. The efficacy of ADAR1i alone or combining with αPD1 Ab for suppression of tumor growth will be assessed as described in the previous section (Aim 2-1). We have at our disposal the largest collection (>500) of clinically and genetically annotated melanoma PDX. […] We will use the human melanoma cell lines/PDXs in subcutaneous tumor assays in the hu-BLT mice. Human melanomas will be established in the hu-BLT mice and randomized into 4 treatment groups (n=5 per group): 1) ADAR1i alone, 2) αPD-1 Ab alone, 3) combination ADAR1i/αPD-1, 4) control IgG. Tumor volumes and overall survival will be determined as described in the previous section (Aim 2-1). Tumors will be biopsied and blood collected at interval periods (at EOT, e.g. 7 days, at TTR, and at EOS) and analyzed for hallmark melanoma features as above. […]

Data set [3] relates to YUMM1.7 cells. Nature of the data set: qRT-PCR of ISG expression (IFN signaling), YUMM1.7. Format: cell-based, mouse. The settings on record: YUMM1.7, 10 μM, 12 hrs. The method, then: as §3
(§4) Dose-dependent selective killing of telomerase reactivated cancer cells was determined (FIG. 9A).

Data set [4] can be described thus: Half-life in culture media by loss of cancer cell killing activity. The settings on record: determined by loss of cancer cell killing activity (data not shown), read-out: t1/2 in the culture media (converted). The data set is classed as in vitro ADME. An excerpt:
We will modify ADAR1i-124 and derive ADAR1i-124 analogs with higher potency (higher affinity binding and lower IC50) ready to be tested for animal model studies (next section).

Data set [5] has as its system YUMM1.7 cells. The data set can be described thus: Cell death mechanism, pMLKL necroptosis marker, YUMM1.7. Format: cell-based, mouse. The settings on record: YUMM1.7, pMLKL marker.
From the text: as §2
Thus, ADAR1i-124 has the potential to act as a “two birds with one stone” cancer therapeutic.

Data set [6] has as its system human and mouse melanoma (telomerase reactivated) cell lines. Nature of the data set: Suppression of melanoma cell lines, comparison of inhibitors (not shown). Format: cell-based. On the procedure:
as §4

For another data set, the system named is YUMM1.7. Nature of the data set: Dose-dependent killing, YUMM1.7. The data set is classed as cell-based. The settings on record: mouse non-ALT cancer cells. The method, then:
as §3

In a further data set the test system is HSG2. Nature of the data set: Dose-dependent killing, HSG2. The settings on record: mouse non-ALT cancer cells. Format: cell-based. On the procedure: as §3
For data set [7] the following is noted: mouse, in vivo, ip.

“Also recorded” adds a separate entry of the source. Read-outs that look alike come from different tables or passages of the source.

HuR, sequence (Q15717 whole entry, species assumed): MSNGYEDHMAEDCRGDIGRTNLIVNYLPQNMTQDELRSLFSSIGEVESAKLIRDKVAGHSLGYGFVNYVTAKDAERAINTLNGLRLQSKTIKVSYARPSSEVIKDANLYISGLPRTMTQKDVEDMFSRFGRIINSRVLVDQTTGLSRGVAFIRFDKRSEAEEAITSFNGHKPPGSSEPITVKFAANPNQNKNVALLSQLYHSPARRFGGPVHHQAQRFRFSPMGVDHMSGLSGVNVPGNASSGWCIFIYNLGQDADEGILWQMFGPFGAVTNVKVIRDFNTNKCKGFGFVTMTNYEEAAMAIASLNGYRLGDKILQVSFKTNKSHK

In the case of `N#Cc1ccc(NC(=O)c2sc3ccccc3c2Cl)cc1` [ADAR1i-13, 3-chloro-N-(4-cyanophenyl)-1-benzothiophene-2-carboxamide], the “Binding to ADAR2” value at ADAR2 is “bound also to ADAR2”. In addition, on HuR, the “Binding to HuR” value is given as “did not bind”. Besides, the “Binding to GAPDH” value on GAPDH is reported as “did not bind”.
Turning to `N#Cc1ccc(NC(=O)c2c(Cl)c3ccccc3n2CO)cc1` [ADAR1i-124], the “Killing of mouse melanoma and ovarian cancer cells” value in data set [1] was “dose-dependently and efficiently killed”. For the same molecule, the “ISG expression / IFN signaling activation” value is “Activation of the IFN signaling” with HGS2 cells; “upregulated expression of interferon stimulated genes (ISGs) including MDA5, CXCL9, and CXCL10; also recorded: upregulated expression of known ISGs; also recorded: activated type I IFN signaling; also recorded: Activation of the IFN signaling” in the data set on YUMM1.7 cells [3]. The “Binding to ADAR2” value at ADAR2 is “bound also to ADAR2”. Also, the “Killing of WM3000 cells” value in [2] is recorded as “killed one PDX melanoma cell line, WM3000, in a dose-dependent manner; also recorded: dose-dependently killed”. Also, the “Binding to HuR” value on HuR is listed as “did not bind”. Further, the half-life in data set [4] is around 720 min. Further, the Induction of necroptosis entry in the data set on YUMM1.7 cells [5] was “induced necroptosis; also recorded: killed via necroptosis”. The “Binding to GAPDH” value at GAPDH is given as “did not bind”. Further, in data set [6], the “Suppression of human and mouse melanoma cell lines relative to other inhibitors” value was “more efficiently than ADAR1i-13 and ADAR1i-120”. For the same molecule, the “Killing of YUMM1.7 cells” value in the data set on YUMM1.7 is recorded as “dose-dependently killed”. For the same molecule, the “Killing of HSG2 cells” value in the data set with HSG2 is reported as “dose-dependently killed”. The Well tolerated dose result in data set [7] and in data set [7] (5 days) was “up to 50 mg/kg” throughout.
